Source: BindingDB's records for doi:10.7270/Q2JM286J (Burnham Center For Chemical Genomics, 2012)

Target: Prothrombin (Bos taurus, UniProt P00735)
Test: thrombin inhibition, dose response, biochemical, fluorescence polarization, uHTS hits (AID 602369)

Work on `O=C1N=C(Nc2ccc(Cl)cc2Cl)SC1=Cc1c[nH]c2ccccc12` yielded an IC50 of 38.3 µM.
Work on `COC1=CC([N+](=O)[O-])=CC(/C=N/NC(=O)c2cc(-c3ccccc3)nc3ccccc23)C1=O` (stereo not given) yielded an IC50 of 75.1 µM.
For `COC1=CC(=Cc2c(C)[nH]n(-c3cccc(Br)c3)c2=O)C=C(OC)C1=O`, the IC50 was 39 µM.
For `CN(CCO)c1ccc(CN=Nc2ccc([N+](=O)[O-])cc2S(=O)(=O)Nc2ccccc2C(=O)O)cc1`, the IC50 was 36.4 µM.
With `O=c1c(Cl)c(N=NCc2ccc(Br)cc2)cnn1-c1ccccc1` the IC50 was greater than 100 µM.
In the case of `CCOC(=O)C1C(=O)C(=Cc2ccc(-c3ccccc3C(=O)O)o2)SC1=Nc1ccc(OC)cc1` (stereo not given), the IC50 is reported as 13.1 µM.
Compound `CC[n+]1c(CC=Nc2ccccc2)oc2ccc(OC)cc21` has an IC50 of 55.6 µM.
Compound `O=C1C=CC([N+](=O)[O-])=CC1C=NN=C1NS(=O)(=O)c2ccccc21` (stereo not given) has an IC50 of 36.8 µM.
`CCN(CC)CCOC(=O)c1ccc(N=CC(C#N)c2nc(-c3ccc4c(c3)OCO4)cs2)cc1` (stereo not given) [2-(diethylamino)ethyl 4-[[(Z)-2-[4-(1,3-benzodioxol-5-yl)-1,3-thiazol-2-yl]-2-cyano-ethenyl]amino]benzoate] showed an IC50 of 56.1 µM.
Compound `Oc1csc(=S)n1N=Cc1ccc(Cl)s1` [3-[(5-chlorothiophen-2-yl)methylideneamino]-2-sulfanylidene-1,3-thiazolidin-4-one] has an IC50 of 27.1 µM.
For `CC(=O)C1C(=O)OC(=CC=Cc2ccccc2)C1=O` (stereo not given) [3-acetyl-5-cinnamylidene-4-hydroxy-2-furanone], the IC50 was 50.4 µM.
`C=c1[nH]n(-c2nnc(C)c(=O)[nH]2)c(=O)c1=Cc1ccc(N(CC)CC)cc1` [3-{4-[1-(4-Diethylamino-phenyl)-meth-(Z)-ylidene]-3-methyl-5-oxo-4,5-dihydro-pyrazol-1-yl}-6-methyl-4H -[1,2,4]triazin-5-one] gave an IC50 of 49.9 µM.
Compound `NS(=O)(=O)c1ccc(N=CCC(=O)c2ccc3ccccc3c2)cc1` [4-(3-Naphthalen-2-yl-3-oxo-propenylamino)-benzenesulfonamide] has an IC50 of 56.5 µM.
Compound `CSc1nsc(CC=Nc2ccc(C(=O)O)cc2)c1C#N` [4-({2-[4-cyano-3-(methylsulfanyl)-5-isothiazolyl]vinyl}amino)benzenecarboxylic acid] has an IC50 of 27.6 µM.
Work on `CC1(C)CC(=O)C(=CNCC2CCN(C(=O)Cc3ccccc3)CC2)C(=O)C1` [5,5-dimethyl-2-[[[1-(2-phenylacetyl)piperidin-4-yl]methylamino]methylidene]cyclohexane-1,3-dione] yielded an IC50 greater than 100 µM.
`CC(c1sc(S)nc1O)c1sc(S)nc1O` [5-[1-(4-oxidanylidene-2-sulfanylidene-1,3-thiazolidin-5-yl)ethyl]-2-sulfanylidene-1,3-thiazolidin-4-one] gave an IC50 of 52.4 µM.
`CC1=NC(=O)NC(c2ccc(N3CCOCC3)cc2)C1C(=O)c1ccccc1` (stereo not given) [5-benzoyl-6-methyl-4-[4-(4-morpholinyl)phenyl]-3,4-dihydro-1H-pyrimidin-2-one] showed an IC50 of 15.5 µM.
`COC1=CC([N+](=O)[O-])=CC(/C=N/NC(=O)c2cncc(Br)c2)C1=O` (stereo not given) [5-bromo-N'-[(E)-(5-methoxy-3-nitro-6-oxo-1-cyclohexa-2,4-dienylidene)methyl]-3-pyridinecarbohydrazide] showed an IC50 of 39.1 µM.
With `Cc1[nH]n(-c2ccccc2)c(=O)c1C=C1NC(=S)NC1=O` [5-methyl-4-[(Z)-(5-oxo-2-sulfanylideneimidazolidin-4-ylidene)methyl]-2-phenyl-4H-pyrazol-3-one] the IC50 was 52.8 µM.
With `O=C1c2ccccc2SC1/C=N/c1cc([N+](=O)[O-])ccc1O` (stereo not given) [(2Z)-2-[[(5-nitro-2-oxidanyl-phenyl)amino]methylidene]-1-benzothiophen-3-one] the IC50 was 2.57 µM.
`Cc1[nH]c2ccccc2c1/C=C1\N=C(c2ccccc2)OC1=O` [(4Z)-4-[(2-methyl-1H-indol-3-yl)methylidene]-2-phenyl-5-oxazolone] showed an IC50 of 7.22 µM.
`C=CCN1C(=O)C(/C=N/c2cccc([N+](=O)[O-])c2)C(=O)N(CCCC)C1=O` (stereo not given) [MLS000543529] gave an IC50 of 42.7 µM.
`O=[N+]([O-])c1ccc(N=NCc2c[nH]c3ccccc23)cc1` [MLS000573812] gave an IC50 of 2.05 µM.
With `O=[N+]([O-])c1ccc(N=NCc2ccc[nH]2)cc1` [MLS000595102] the IC50 was 9.84 µM.
With `COc1cc2c3c(c1)C(C)=CC(C)(C)N3C(=O)C2=O` [MLS000688351] the IC50 was 11.4 µM.
`C=C(C=C(C)c1sc(S)nc1O)c1sc(S)nc1O` [MLS000723803] showed an IC50 of 87.5 µM.
`C=c1[nH]c2ccc(C)cc2c1=Cc1c(N)n2oc(C)cc2nc1=O` [MLS000730959] was tested, and the IC50 was 32.1 µM.
`O=C(N/N=C/C1C=C([N+](=O)[O-])C=CC1=O)c1cc(-c2ccccc2)nc2ccccc12` (stereo not given) [N'-[(E)-(3-nitro-6-oxo-1-cyclohexa-2,4-dienylidene)methyl]-2-phenyl-4-quinolinecarbohydrazide] was tested, and the IC50 was 10.7 µM.
`COc1cc(C=c2[nH]c3n(c2=O)CCCCC=3)ccc1O` [SMR000149996] showed an IC50 of 29.7 µM.
Work on `O=[N+]([O-])c1ccc(N=NCc2cccn2-c2ccccc2)nc1` [SMR000161089] yielded an IC50 of 29.5 µM.
Work on `COc1cc(C=CC(=O)C2C(=O)NC(=O)N(CCc3ccccc3)C2=O)ccc1O` (stereo not given) [SMR000221203] yielded an IC50 of 40.6 µM.
For `Cc1cc(=O)[nH]c(N=NCc2c(O)n(-c3ccccc3)c(=O)c3ccccc23)n1` [SMR000221270], the IC50 was 37.2 µM.
`O=C(N/N=C/C1C=C(Cl)C=C([N+](=O)[O-])C1=O)c1ccccc1NS(=O)(=O)c1cccs1` (stereo not given) [SMR000364876] gave an IC50 of 85.5 µM.
Compound `CCN(CC)CCOC(=O)c1ccc(N=CC(C#N)c2nc(-c3ccc(OC)c(OC)c3)cs2)cc1` (stereo not given) [SMR000434079] has an IC50 of 28.7 µM.
In the case of `CCCCCCCCCCCC1N=C(N)N=C(CCCO)C1C(=O)OC` (stereo not given) [SMR001565729], the IC50 is reported as 42.3 µM.
